The subject of test [1] is 35S::GFP-PYR1*^-MANDI transgenic plants. The experiment in a line: Thermography of leaf temperature after chemical treatment. Conditions: for leaf temperature: T1 plants, 24 hours after application, FIG. 10. Format: in vivo, Arabidopsis thaliana. The source says:
To examine the effects of over-expressing either PYR1*^-MANDI or HAB1* in Arabidopsis thaliana, we made 35S-driven GFP-PYR1*^-MANDI and GFP-HAB1* constructs by cloning the mutant genes into the binary vector pEGAD, and the resultant plasmids were transformed into Agrobacterium tumefaciens. The floral dip method was used to generate T0 transgenic seed for both constructs and the T0 seed was germinated in soil containing glufosinate to select for transgenic T1 plants. The PYR1*^-MANDI T1 plants isolated were grown for ˜5 weeks and then treated with mandipropamid, using comparisons to wild type Columbia plants and a previously constructed 35S::PYR1^MANDI transgenic strain as controls. The treated plants were thermographed 24 hours after chemical applications to examine leaf temperature, which increases after ABA responses are activated, due to reduced transpiration. To examine different mandipropamid concentrations, the plants were first treated with 1 μM mandipropamid and then 3 days later were treated again with 10 μM mandipropamid.
Several T1 transgenic seed were propagated and 3 homozygous single insertion transgenic lines identified by glufosinate segregation patterns in the T3 seedlings. GFP-PYR1*^-MANDI protein levels were established by western blotting using an anti-GFP antibody, as described above and the three lines had similar levels of protein expression.

In the next test the test system is pMANDI-UAS-GFP-LEAFY. Briefly: Mandipropamid induction of GFP-LEAFY in T1 leaf tissue, GFP fluorescence. In kind it is in vivo, Arabidopsis. Conditions: 10 μM mandipropamid, 24 hours; FIG. 15B. An excerpt: To test the efficacy of our transcriptional circuit in planta, we constructed a 3 component system for inducing genes of interest using the mandipropamid mediated interaction of a BD-PYR1*/AD-HAB1* to drive genes of interest from a GAL4-responsive UAS (FIG. 15A). To do this we constructed a BD-PYR1*^-MANDI fusion protein and NLSSV40-VP64-HAB1*-N7 fusion protein and used these to drive gene expression from a synthetic UAS-minimal-35S promoter. To make the desired vector, the three required components were separately cloned into vectors that provided necessary elements (such as the Gal4 DNA binding domain, or 35S-promoter-nos-terminator cassettes). After this, the three components were combined into a plant binary transformation vector.
To combine all three components into a single vector, a 35S::NLS-VP64-HAB1*-N7-Nos-terminator cassette was PCR amplified from pVP64-HAB1*-N7 and cloned into pBD-PYR1* into its SacI site, upstream of the BD-PYR1* expression cassette, yielding pAD-BD. […]
Having developed a simple induction system, we tested it by examining the expression of the flowering regulator LEAFY. […] 24 hours after transfer, both tissues were examined using a GFP fluorescence dissecting scope and documented under identical camera and microscope settings (FIG. 15B).

Data on one compound can be found in patent US10919943B2, “Mutant proteins enabling agrochemical control of plant gene expression” (The Regents of the University of California, priority 2016, dated 2021).

For `C#CCOc1ccc(CCNC(=O)C(OCC#C)c2ccc(Cl)cc2)cc1OC` (stereo not shown) [mandipropamid], the leaf temperature result in test [1] (1 μM mandipropamid) and in test [1] (10 μM mandipropamid (3 days after 1 μM)) was “Neither of the treatments elicited substantial alterations in leaf temperature” throughout. Moreover, the “leaf temperature in comparison to wild type control plants” value in test [1] (two homozygous lines, 5 μM mandipropamid, FIG. 11) is listed as “did not reveal differences in leaf temperature”. In the test with pMANDI-UAS-GFP-LEAFY, the GFP-LEAFY induction entry is “GFP-LEAFY induction in response to mandipropamid”.
